PMC11878239, “Biochemical investigations using mass spectrometry to monitor JMJD6-catalysed hydroxylation of multi-lysine containing bromodomain-derived substrates” (RSC Chemical Biology, 2025)
“Also recorded” adds a separate entry of the source.

Target: T1, full-length His6-JMJD6 (Homo sapiens, UniProt Q6NYC1)
T1 construct: An enzyme mixture (10 μL) containing full-length His6-JMJD6 (5 μM; final concentration: 0.05 μM); made in house; host or cells: Escherichia coli BL21 (DE3), pET-28a(+) plasmid
Test: SPE-MS kinetics of JMJD6-catalysed lysyl hydroxylation (2OG, Fe(II), LAA, BRD-derived peptides)
Assay type: biochemical
Settings: for tri- or higher-order hydroxylation: 0.05 μM JMJD6, SPE-MS time courses
Procedure: Recombinant human JMJD6 (full length with a N-terminal His6-tag) was produced in Escherichia coli BL21 (DE3) cells using a pET-28a(+) plasmid and purified by standard Ni(II)-affinity size-exclusion chromatography, as previously reported.[40] […] Purified JMJD6 was stored at −78 °C; fresh aliquots were used for all JMJD6 assays.
Peptides were used as 10 mM stock solutions in DMSO (Sigma-Aldrich; BioUltra grade).
Assay samples were aspirated under vacuum for 0.4 s, then loaded onto a C4 solid phase extraction (SPE) cartridge. After loading, the C4 SPE cartridge was washed with 0.1%v/v aqueous formic acid to remove non-volatile buffer salts (5 s, 1.5 mL min^−1). The peptide was eluted from the SPE cartridge with 0.1%v/v aqueous formic acid in 75/25v/v acetonitrile/water into the mass spectrometer (5 s, 1.6 mL min^−1) and the SPE cartridge re-equilibrated with 0.1%v/v aqueous formic acid (1 s, 1.25 mL min^−1).
Peaks corresponding to the m/z +5 charge states of the BRD-derived substrate peptide and the hydroxylated product peptides were extracted from the ion chromatogram and integrated using RapidFire Integrator 4.3.0 (Agilent). Peak area data were exported into Microsoft Excel and used to calculate the relative abundance of the mono-hydroxylated product peptide using the following equation: […]
The concentration of the mono-hydroxylated product peptide was calculated by multiplying the %-fraction of the mono-hydroxylated product peptide by the initial concentration of the substrate peptide employed in the assay. Initial reaction velocities were then calculated and fitted to a Michaelis–Menten plot using nonlinear regression (GraphPad Prism 5).

LAELQEQLKAVHEQLAALSQPQQNKPKKKEKDKKEKKKEK [BRD4_511–550, 40-mer peptide fragment derived from human BRD4, JMJD6 substrate, prepared by SPPS]
tri- or higher-order hydroxylation (ambient temperature): negligible levels of BRD4_511–550 hydroxylations beyond mono-hydroxylation | tri- or higher-order hydroxylation (ambient temperature, listed as BRD4511-550): No evidence for triple; also recorded: No evidence for triple (or higher order) | apparent maximum velocity v^app max (BRD peptide substrate varied, 0.05 μM full-length His6-JMJD6, 2OG 200 μM, FAS 2 μM, LAA 100 μM, 50 mM Tris pH 7.5, ambient temperature, mono-hydroxylation, substrate inhibition fit, mean ± SD n = 3): 5.8 ± 1.2 nM/s | K m (BRD peptide substrate varied, 0.05 μM full-length His6-JMJD6, 2OG 200 μM, FAS 2 μM, LAA 100 μM, 50 mM Tris pH 7.5, ambient temperature, substrate inhibition fit, mean ± SD n = 3, read-out: Michaelis constant Km (K^app m)): 0.62 ± 0.26 µM | turnover number kcat (k^app cat) (BRD peptide substrate varied, 0.05 μM full-length His6-JMJD6, 2OG 200 μM, pH 7.5, SPE-MS, calculated from v^app max assuming active JMJD6 = total enzyme, n = 3): 0.12 ± 0.02 s⁻¹ | catalytic efficiency kcat/Km (BRD peptide substrate varied, 0.05 μM full-length His6-JMJD6, 2OG 200 μM, pH 7.5, SPE-MS, n = 3): 190000 ± 80000 M⁻¹ s⁻¹ | relative abundance of mono-hydroxylated peptide at plateau (absence of LAA, after ~10 min, 50 nM JMJD6, 2OG 200 μM, FAS 2 μM, peptide 2 μM, pH 7.5, n = 3): ~15% | substrate inhibition of JMJD6 catalysis (high substrate concentrations (>2 μM)): inhibit JMJD6 catalysis
